Key:
[1] = in vivo; cited from earlier work
[2] = test system: RSD triggered and developed by a trauma or surgical invasion; details: clinical, literature; cited from earlier work
[3] = test system: patients with hemiplegia attributed to cerebrovascular disease (stroke), onset of RSD (shoulder-hand syndrome); test: Test of prevention of onset of post-stroke RSD; format: in vivo, humans
From the text: Test subjects were 33 patients with hemiplegia attributed to cerebrovascular disease (stroke) at Brunnstrom stage III or lower in either the upper limb or a finger on admission. Patients already developing RSD (shoulder-hand syndrome) on admission and patients with pain in the shoulder joint or swollen paralyzed limbs were excluded from the test. […] On the other hand, 21 test subjects were classified into a rehabilitation alone group (control group) and compared with the EL administration group. Physical therapy and therapeutic exercise, occupational therapy, and the management of the paralyzed limbs were performed thoroughly in all the cases. […] EL administration was initiated 11 to 59 days after an attack of stroke (25.8 days on average) and continued until 5 months after the attack of stroke. The same observation period was applied to the control group. The test subjects were diagnosed as developing RSD (shoulder-hand syndrome) if they had diffuse pain not localized to the shoulder joint, edema involving skin color changes, skin temperature abnormalities, and range of motion limitations, and the practice of their rehabilitation was restricted. These criteria agreed to Veldmnan's diagnostic criteria or diagnostic criteria for CRPS-type 1 provided by the International Association for the Study of Pain.
Activities of daily living (ADL) were evaluated on the basis of the Barthel Index (BI) and the range of motion (ROM) of shoulder joint. The movable range of shoulder joint (also referred to as “shoulder ROM”) was regarded as restricted (Shoulder-ROM-restrictions were present.) if either abduction or flexion was restricted in measurement. The test subjects were also examined for sensory impairment, aphasia, and unilateral spatial neglect on admission.
Statistical analysis was conducted with unpaired t-test, Fisher's exact test or Wilcoxon test, and 5% or lower significance level was regarded as being significant.

[4] = test system: patients with hemiplegia attributed to cerebrovascular disease (stroke) who developed RSD (shoulder-hand syndrome); test: Test of treatment of post-stroke RSD (therapeutic administration after onset); format: in vivo, humans; details: therapeutic administration group (11 patients), at completion of administration
Protocol: EL was administered after the onset of RSD (shoulder-hand syndrome) in the same use and dose as in Example 1 to 11 patients with hemiplegia attributed to cerebrovascular disease (stroke) at Brunnstrom stage III or lower in either the upper limb or a finger on admission, who developed RSD (shoulder-hand syndrome). These patients were classified into a therapeutic administration group. On the other hand, the EL administration group of Example 1 was compared as a control (preventive administration group) with the therapeutic administration group.

[5] = EL preventive administration group (12 cases), 20 units i.m. once a week until 5 months after stroke

## salmon calcitonin
[1]
  Dose of oral administration agent relative to dose of drip infusion in vein: approximately 60 times

## O=C1O[C@H]([C@@H](O)CO)C(O)=C1O [vitamin C]
[2]
  Preventive effect on the initial onset of RSD after trauma or surgical invasion: preventive effect

## 1-butyric acid-7-(L-2-aminobutyric acid)-26-L-aspartic acid-27-L-valine-29-L-alanine-calcitonin [elcatonin]
[3]; EL administration group
  Incidence converted to incidence in all patients with hemiplegia attributed to stroke in the facility: approximately 1.3%
[3]; EL administration initiated within 48 days after stroke
  Incidence of RSD: 0%
[3]; [5]
  The number of test subjects developing post-stroke RSD: Developed: 1
  The number of test subjects developing post-stroke RSD: Not developed: 11
[3]; EL preventive administration group, 12 cases
  Incidence of RSD (cases developed RSD): 8.3%
[3]; repetitive administration to stroke hemiplegia patients without RSD on admission
  Incidence of RSD until discharge versus unadministered patient group: suppressed significantly and remarkably
[4]
  No RSD, the number of persons: 0

Reference: patent US7919460B2, “Method for prophylaxis of reflex sympathetic dystrophy after stroke” (Asahi Kasei Pharma Corporation, priority 2006, dated 2011)
